The values that follow come from patent publication US8163724B2, “Glucocorticosteroids, processes for their preparation, pharmaceutical compositions containing them and their use in therapy” (AstraZeneca AB, priority 2007, dated 2012).

The structures appear in SMILES notation.

The first test addresses T1, recombinant human GR (Homo sapiens, UniProt P04150).
T1 construct: purchased Panvera/Invitrogen P2812 (kit P2893)
T1 sequence (P04150 1-777): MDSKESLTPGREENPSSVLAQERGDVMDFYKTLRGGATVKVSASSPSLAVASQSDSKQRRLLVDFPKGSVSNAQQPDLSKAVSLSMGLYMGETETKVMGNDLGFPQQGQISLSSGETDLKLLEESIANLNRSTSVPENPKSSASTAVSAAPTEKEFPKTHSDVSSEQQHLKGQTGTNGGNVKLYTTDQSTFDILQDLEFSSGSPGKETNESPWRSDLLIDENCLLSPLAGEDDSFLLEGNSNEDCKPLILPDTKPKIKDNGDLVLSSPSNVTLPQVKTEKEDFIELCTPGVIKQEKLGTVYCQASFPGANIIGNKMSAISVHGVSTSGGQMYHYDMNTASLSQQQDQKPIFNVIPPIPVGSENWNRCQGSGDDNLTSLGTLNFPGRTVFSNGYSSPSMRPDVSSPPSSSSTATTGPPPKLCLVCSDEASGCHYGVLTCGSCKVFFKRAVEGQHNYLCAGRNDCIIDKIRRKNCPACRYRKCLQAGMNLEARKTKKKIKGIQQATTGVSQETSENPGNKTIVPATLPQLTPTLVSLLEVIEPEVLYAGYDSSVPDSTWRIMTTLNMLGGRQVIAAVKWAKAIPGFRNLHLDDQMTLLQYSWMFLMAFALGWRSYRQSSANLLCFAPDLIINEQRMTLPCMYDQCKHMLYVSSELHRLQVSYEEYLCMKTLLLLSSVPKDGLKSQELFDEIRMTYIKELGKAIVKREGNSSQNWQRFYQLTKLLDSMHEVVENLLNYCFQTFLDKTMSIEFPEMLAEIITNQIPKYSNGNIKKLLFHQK
In words: Human Glucocorticoid Receptor (GR) Assay (fluorescence polarization, Panvera/Invitrogen kit).
Conditions: not given
Type of test: binding. A digest of the protocol: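 Fluorescence polarization competition with recombinant GR and GS Red fluorescent ligand plus stabilizing peptide and DTT in potassium phosphate/sodium molybdate/EDTA buffer with DMSO. Incubated 2 hours at room temperature in the dark; 0% control DMSO, 100% control 10 μM dexamethasone.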
(In general: Fluorescence polarisation rises when a labelled molecule tumbles more slowly, as on binding a larger partner.)
With `Cc1occc1C(=O)O[C@]1(C(=O)SCCO)CC[C@H]2[C@@H]3CCC4=Cc5c(cnn5-c5ccc(F)cc5)C[C@]4(C)[C@H]3[C@@H](O)C[C@@]21C` [Example 55, (1R,3aS,3bS,10aR,10bS,11S,12aS)-7-(4-Fluorophenyl)-11-hydroxy-1-{[(2-hydroxy-ethyl)thio]carbonyl}-10a,12a-dimethyl-1,2,3,3a,3b,4,5,7,10,10a,10b,11,12,12a-tetradecahydrocyclopenta[5,6]naphtho[1,2-f]indazol-1-yl 2-methylfuran-3-carboxylate], the IC50 (in general, the concentration that gives 50% inhibition) amounted to 7 nM.

The test is the same for the next values; noted with them: fluorescence polarization; GS Red tracer; 2 hours at room temperature; 100% control 10 μM Dexamethasone; read-out: Inhibition of GR binding, IC50.
Turning to `C[C@]12Cc3cnn(-c4ccc(F)cc4)c3C=C1CC[C@@H]1[C@@H]2[C@@H](O)C[C@@]2(C)[C@H]1CC[C@]2(OC(=O)c1nccs1)C(=O)SCF` [Example 42, (1R,3aS,3bS,10aR,10bS,11S,12aS)-1-{[(Fluoromethyl)thio]carbonyl}-7-(4-fluoro-phenyl)-11-hydroxy-10a,12a-dimethyl-1,2,3,3a,3b,4,5,7,10,10a,10b,11,12,12a-tetradecahydrocyclopenta[5,6]naphtho[1,2-f]indazol-1-yl 1,3-thiazole-2-carboxylate], the IC50 is 3.2 nM.

For `C[C@]12Cc3cnn(-c4ccc(F)cc4)c3C=C1CC[C@@H]1[C@@H]2[C@@H](O)C[C@@]2(C)[C@H]1CC[C@]2(OC(=O)c1cocn1)C(=O)SCC#N` [Example 43, (1R,3aS,3bS,10aR,10bS,11S,12aS)-1-{[(Cyanomethyl)thio]carbonyl}-7-(4-fluoro-phenyl)-11-hydroxy-10a,12a-dimethyl-1,2,3,3a,3b,4,5,7,10,10a,10b,11,12,12a-tetradecahydrocyclopenta[5,6]naphtho[1,2-f]indazol-1-yl 1,3-oxazole-4-carboxylate], the IC50 came out at 2.7 nM.

`C[C@]12Cc3cnn(-c4ccc(F)cc4)c3C=C1CC[C@@H]1[C@@H]2[C@@H](O)C[C@@]2(C)[C@H]1CC[C@]2(OC(=O)c1cocn1)C(=O)SCCO` [Example 44, (1R,3aS,3bS,10aR,10bS,11S,12aS)-7-(4-Fluorophenyl)-11-hydroxy-1-{[(2-hydroxy-ethyl)thio]carbonyl}-10a,12a-dimethyl-1,2,3,3a,3b,4,5,7,10,10a,10b,11,12,12a-tetradecahydrocyclopenta[5,6]naphtho[1,2-f]indazol-1-yl 1,3-oxazole-4-carboxylate]: the IC50 turned out to be 2.9 nM.

As for `C[C@]12Cc3cnn(-c4ccc(F)cc4)c3C=C1CC[C@@H]1[C@@H]2[C@@H](O)C[C@@]2(C)[C@H]1CC[C@]2(OC(=O)c1cocn1)C(=O)SCF` [Example 45, (1R,3aS,3bS,10aR,10bS,11S,12aS)-1-{[(Fluoromethyl)thio]carbonyl}-7-(4-fluoro-phenyl)-11-hydroxy-10a,12a-dimethyl-1,2,3,3a,3b,4,5,7,10,10a,10b,11,12,12a-tetradecahydrocyclopenta[5,6]naphtho[1,2-f]indazol-1-yl 1,3-oxazole-4-carboxylate], the IC50 came to 3.4 nM.

Take `CC(=O)CSC(=O)[C@@]1(OC(=O)c2cocn2)CC[C@H]2[C@@H]3CCC4=Cc5c(cnn5-c5ccc(F)cc5)C[C@]4(C)[C@H]3[C@@H](O)C[C@@]21C` [Example 46, (1R,3aS,3bS,10aR,10bS,11S,12aS)-7-(4-Fluorophenyl)-11-hydroxy-10a,12a-dimethyl-1-{[(2-oxopropyl)thio]carbonyl}-1,2,3,3a,3b,4,5,7,10,10a,10b,11,12,12a-tetradecahydropcyclopenta[5,6]naphtho[1,2-f]indazol-1-yl 1,3-oxazole-4-carboxylate]: the 50% inhibitory concentration (IC50) was 3.9 nM.

Turning to `Cn1cc(C(=O)O[C@]2(C(=O)SCC#N)CC[C@H]3[C@@H]4CCC5=Cc6c(cnn6-c6ccc(F)cc6)C[C@]5(C)[C@H]4[C@@H](O)C[C@@]32C)nn1` [Example 47, (1R,3aS,3bS,10aR,10bS,11S,12aS)-1-{[(Cyanomethyl)thio]carbonyl}-7-(4-fluoro-phenyl)-11-hydroxy-10a,12a-dimethyl-1,2,3,3a,3b,4,5,7,10,10a,10b,11,12,12a-tetradecahydrocyclopenta[5,6]naphtho[1,2-f]indazol-1-yl 1-methyl-1H-1,2,3-triazole-4-carboxylate], the IC50 worked out at 2.5 nM.

As to `Cn1cc(C(=O)O[C@]2(C(=O)SCF)CC[C@H]3[C@@H]4CCC5=Cc6c(cnn6-c6ccc(F)cc6)C[C@]5(C)[C@H]4[C@@H](O)C[C@@]32C)nn1` [Example 48, (1R,3aS,3bS,10aR,10bS,11S,12aS)-1-{[(Fluoromethyl)thio]carbonyl}-7-(4-fluoro-phenyl)-11-hydroxy-10a,12a-dimethyl-1,2,3,3a,3b,4,5,7,10,10a,10b,11,12,12a-tetradecahydrocyclopenta[5,6]naphtho[1,2-f]indazol-1-yl 1-methyl-1H-1,2,3-triazole-4-carboxylate], the IC50 stood at 4.9 nM.

With `Cn1cc(C(=O)O[C@]2(C(=O)SCCO)CC[C@H]3[C@@H]4CCC5=Cc6c(cnn6-c6ccc(F)cc6)C[C@]5(C)[C@H]4[C@@H](O)C[C@@]32C)nn1` [Example 49, (1R,3aS,3bS,10aR,10bS,11S,12aS)-7-(4-Fluorophenyl)-11-hydroxy-1-{[(2-hydroxy-ethyl)thio]carbonyl}-10a,12a-dimethyl-1,2,3,3a,3b,4,5,7,10,10a,10b,11,12,12a-tetradecahydrocyclopenta[5,6]naphtho[1,2-f]indazol-1-yl 1-methyl-1H-1,2,3-triazole-4-carboxylate], the half-maximal inhibitory concentration (IC50) amounted to 3.5 nM.

As to `C[C@]12Cc3cnn(-c4ccc(F)cc4)c3C=C1CC[C@@H]1[C@@H]2[C@@H](O)C[C@@]2(C)[C@H]1CC[C@]2(OC(=O)c1ccoc1)C(=O)SCC#N` [Example 50, (1R,3aS,3bS,10aR,10bS,11S,12aS)-1-{[(Cyanomethyl)thio]carbonyl}-7-(4-fluoro-phenyl)-11-hydroxy-10a,12a-dimethyl-1,2,3,3a,3b,4,5,7,10,10a,10b,11,12,12a-tetradecahydrocyclopenta[5,6]naphtho[1,2-f]indazol-1-yl furan-3-carboxylate], the 50% inhibitory concentration (IC50) worked out at 5.8 nM.

Consider `C[C@]12Cc3cnn(-c4ccc(F)cc4)c3C=C1CC[C@@H]1[C@@H]2[C@@H](O)C[C@@]2(C)[C@H]1CC[C@]2(OC(=O)c1ccoc1)C(=O)SCF` [Example 51, (1R,3aS,3bS,10aR,10bS,11S,12aS)-1-{[(Fluoromethyl)thio]carbonyl}-7-(4-fluoro-phenyl)-11-hydroxy-10a,12a-dimethyl-1,2,3,3a,3b,4,5,7,10,10a,10b,11,12,12a-tetradecahydrocyclopenta[5,6]naphtho[1,2-f]indazol-1-yl furan-3-carboxylate], for which the IC50 worked out at 6.9 nM.

As for `C[C@]12Cc3cnn(-c4ccc(F)cc4)c3C=C1CC[C@@H]1[C@@H]2[C@@H](O)C[C@@]2(C)[C@H]1CC[C@]2(OC(=O)c1ccoc1)C(=O)SCCO` [Example 52, (1R,3aS,3bS,10aR,10bS,11S,12aS)-7-(4-Fluorophenyl)-11-hydroxy-1-{[(2-hydroxy-ethyl)thio]carbonyl}-10a,12a-dimethyl-1,2,3,3a,3b,4,5,7,10,10a,10b,11,12,12a-tetradecahydrocyclopenta[5,6]naphtho[1,2-f]indazol-1-yl furan-3-carboxylate], the IC50 was 6.4 nM.

With `Cc1occc1C(=O)O[C@]1(C(=O)SCC#N)CC[C@H]2[C@@H]3CCC4=Cc5c(cnn5-c5ccc(F)cc5)C[C@]4(C)[C@H]3[C@@H](O)C[C@@]21C` [Example 53, (1R,3aS,3bS,10aR,10bS,11S,12aS)-1-{[(Cyanomethyl)sulfanyl]carbonyl}-7-(4-fluoro-phenyl)-11-hydroxy-10a,12a-dimethyl-1,2,3,3a,3b,4,5,7,10,10a,10b,11,12,12a-tetradecahydrocyclopenta[5,6]naphtho[1,2-f]indazol-1-yl 2-methylfuran-3-carboxylate], the IC50 was 9 nM.

With `Cc1occc1C(=O)O[C@]1(C(=O)SCF)CC[C@H]2[C@@H]3CCC4=Cc5c(cnn5-c5ccc(F)cc5)C[C@]4(C)[C@H]3[C@@H](O)C[C@@]21C` [Example 54, (1R,3aS,3bS,10aR,10bS,11S,12aS)-1-{[(Fluoromethyl)thio]carbonyl}-7-(4-fluorophenyl)-11-hydroxy-10a,12a-dimethyl-1,2,3,3a,3b,4,5,7,10,10a,10b,11,12,12a-tetradecahydropcyclopenta[5,6]naphtho[1,2]-indazol-1-yl 2-methylfuran-3-carboxylate], the IC50 is 7.3 nM.
